The text below walks through data of US10266548B2, “Substituted benzylindazoles for use as Bub1 kinase inhibitors in the treatment of hyperproliferative diseases” (Bayer Intellectual Property GmbH, priority 2011, dated 2019).

In one test the test system is B16F10 cells. The test can be described thus: Proliferation assay (B16F10 cell line). The class given is cell-based. The following applies: read-out: Biological Assay 2: Proliferation assay (B16F10 cell line) median IC50. As for the experimental part:
(§1) Cultivated tumor cells (cells were ordered from ATCC, except HeLa-MaTu and HeLa-MaTu-ADR, which were ordered from EPO-GmbH, Berlin) were plated at a density of 1000 to 5000 cells/well, depending on the growth rate of the respective cell line, in a 96-well multititer plate in 200 μL of their respective growth medium supplemented 10% fetal calf serum. After 24 hours, the cells of one plate (zero-point plate) were stained with crystal violet (see below), while the medium of the other plates was replaced by fresh culture medium (200 μl), to which the test substances were added in various concentrations (0 μM, as well as in the range of 0.001-10 μM; the final concentration of the solvent dimethyl sulfoxide was 0.5%). The cells were incubated for 4 days in the presence of test substances. Cell proliferation was determined by staining the cells with crystal violet: the cells were fixed by adding 20 μl/measuring point of an 11% glutaric aldehyde solution for 15 minutes at room temperature. After three washing cycles of the fixed cells with water, the plates were dried at room temperature. The cells were stained by adding 100 μl/measuring point of a 0.1% crystal violet solution (pH 3.0). After three washing cycles of the stained cells with water, the plates were dried at room temperature. The dye was dissolved by adding 100 μl/measuring point of a 10% acetic acid solution. […] The change of cell number, in percent, was calculated by normalization of the measured values to the aborbtion values of the zero-point plate (=0%) and the absorbtion of the untreated (0 μm) cells (=100%). The IC50 values were determined by means of a 4 parameter fit using the company's own software.

A further test has as its system DU145 cells. The test can be described thus: Proliferation assay (DU145 cell line). Format: cell-based. The following applies: read-out: Biological Assay 2: Proliferation assay (DU145 cell line) median IC50. Here is the method:
as §1

The next test concerns HeLa-MaTu-ADR cells. The experiment in a line: Proliferation assay (HeLa-MaTu-ADR cell line). The class given is cell-based. The following applies: read-out: Biological Assay 2: Proliferation assay (HeLa-MaTu-ADR cell line) median IC50. Here is the method:
as §1

Another test concerns Caco2 cells. The experiment in a line: Proliferation assay (Caco2 cell line). The class given is cell-based. To be noted: read-out: Biological Assay 2: Proliferation assay (Caco2 cell line) median IC50. As for the experimental part:
as §1

The test system of a further test is NCI-H460 cells. The experiment in a line: Proliferation assay (H460 cell line). The class given is cell-based. The following applies: read-out: Biological Assay 2: Proliferation assay (H460 cell line) median IC50. As for the experimental part: as §1
The target in test [1] is catalytic domain of human Bub1 (amino acids 704-1085) (Homo sapiens (Human), UniProt O43683). The test can be described thus: Bub1 kinase assay (TR-FRET). The following applies: 10 μM ATP, 1 μM peptide substrate; read-out: Biological Assay 1: Bub1 kinase assay median IC50. Format: biochemical. The method in brief: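 Phosphoserine product detected by TR-FRET (Eu-labeled anti-mouse IgG/anti-phosphoserine antibody to streptavidin-XL665) after 1 h at 22 °C. IC50 from 4-parameter logistic fit.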
Chain of catalytic domain of human Bub1 (amino acids 704-1085) (O43683 704-1085): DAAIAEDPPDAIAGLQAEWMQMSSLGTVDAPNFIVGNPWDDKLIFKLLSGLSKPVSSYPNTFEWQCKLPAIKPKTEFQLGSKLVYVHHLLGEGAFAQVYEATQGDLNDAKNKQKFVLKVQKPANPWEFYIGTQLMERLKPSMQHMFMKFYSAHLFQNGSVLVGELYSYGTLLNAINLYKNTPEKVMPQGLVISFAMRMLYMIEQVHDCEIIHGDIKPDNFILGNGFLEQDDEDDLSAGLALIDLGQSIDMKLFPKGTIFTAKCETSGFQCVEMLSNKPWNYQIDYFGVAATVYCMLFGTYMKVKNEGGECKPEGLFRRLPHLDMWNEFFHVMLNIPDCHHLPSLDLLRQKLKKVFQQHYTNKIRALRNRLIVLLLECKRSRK

A further test relates to HeLa cells. The experiment in a line: Proliferation assay (HeLa cell line). The class given is cell-based. The following applies: Homo sapiens, 96 h, read-out: Biological Assay 2: Proliferation assay (HeLa cell line) median IC50.
Where [2] appears, read: Mus musculus, B16-F10, 96 h, B16F10, 4 days, crystal violet.
Setting [3] is: Homo sapiens, DU-145, 96 h, DU145, 4 days, crystal violet.
The mark [4] stands for this setting: 96 h, HeLa-MaTu-ADR, 4 days, crystal violet.
Setting [5] is: Homo sapiens, Caco-2, 96 h, Caco2, 4 days, crystal violet.
The mark [6] stands for this setting: Homo sapiens, NCI-H460, 96 h, H460, 4 days, crystal violet.

Counter-ions that a name gives are not always drawn. Like-named read-outs stand apart in the source and are kept apart here.

On to `COc1cnc(-c2nn(Cc3c(F)c(F)c(OC)c(F)c3F)c3ccccc23)nc1Nc1ccncc1` [Example 2-24-1, 5-methoxy-N-(pyridin-4-yl)-2-[1-(2,3,5,6-tetrafluoro-4-methoxybenzyl)-1H-indazol-3-yl]pyrimidin-4-amine], for which the IC50 in the test with B16F10 cells (Mus musculus, B16-F10, 96 h) came to 1400 nM; with DU145 cells (Homo sapiens, DU-145, 96 h), 1300 nM; in the test on HeLa-MaTu-ADR cells (96 h), 1300 nM; with Caco2 cells (Homo sapiens, Caco-2, 96 h) it was 1500 nM; with NCI-H460 cells (Homo sapiens, NCI-H460, 96 h), 2000 nM; in test [1], 14 nM. In the test on HeLa cells, the IC50 stood at 3100 nM.
As for `COc1cnc(-c2nn(Cc3c(F)ccc(OC)c3F)c3ccccc23)nc1Nc1ccncc1` [Example 2-4-1, 2-[1-(2,6-difluoro-3-methoxybenzyl)-1H-indazol-3-yl]-5-methoxy-N-(pyridin-4-yl)pyrimidin-4-amine], the IC50 is 1200 nM in the test with B16F10 cells (setting [2]); 3300 nM in the test on DU145 cells (setting [3]); 1300 nM in the test with HeLa-MaTu-ADR cells (setting [4]); 1400 nM in the test with Caco2 cells (setting [5]); 4200 nM in the test with NCI-H460 cells (setting [6]); 4.5 nM in test [1]. The IC50 in the test with HeLa cells (4 days, crystal violet) is 3500 nM.
Turning to `COc1cnc(-c2nn(Cc3c(F)cc(Br)cc3F)c3ccccc23)nc1Nc1ccncc1` [Example 2-12-1, 2-[1-(4-bromo-2,6-difluorobenzyl)-1H-indazol-3-yl]-5-methoxy-N-(pyridin-4-yl)pyrimidin-4-amine], the IC50 in the test on B16F10 cells (Mus musculus, B16-F10, 96 h) is 1400 nM; in the test with DU145 cells (Homo sapiens, DU-145, 96 h), 1600 nM; with HeLa-MaTu-ADR cells (96 h), 1300 nM; in the test on Caco2 cells (Homo sapiens, Caco-2, 96 h), 1400 nM; in the test on NCI-H460 cells (Homo sapiens, NCI-H460, 96 h), 1500 nM; in test [1] it was 7.3 nM. The IC50 in the test on HeLa cells turned out to be 1600 nM.
Take `OCC1(COc2cnc(-c3nn(Cc4ccccc4F)c4ccccc34)nc2Nc2ccncc2)COC1` [Example 4-2-1, {3[({2-[1-(2-fluorobenzyl)-1H-indazol-3-yl]-4-(pyridin-4-ylamino)pyrimidin-5-yl}oxy)methyl]oxetan-3-yl}methanol]: the IC50 in the test with B16F10 cells (Mus musculus, B16-F10, 96 h) came to 3700 nM; in the test with DU145 cells (Homo sapiens, DU-145, 96 h), 10000 nM; with HeLa-MaTu-ADR cells (96 h), 5800 nM; in the test on Caco2 cells (Homo sapiens, Caco-2, 96 h), 9900 nM; in the test with NCI-H460 cells (Homo sapiens, NCI-H460, 96 h) it was 6500 nM; in test [1], 3.3 nM. The IC50 in the test with HeLa cells turned out to be 8700 nM.
With `COc1cnc(-c2nn(Cc3cc4c(cc3Br)OCO4)c3ccccc23)nc1Nc1ccncc1` [Example 2-4-3, 2-{1-[(6-bromo-1,3-benzodioxol-5-yl)methyl]-1H-indazol-3-yl}-5-methoxy-N-(pyridin-4-yl)pyrimidin-4-amine], the IC50 in the test with B16F10 cells (setting [2]) worked out at 1500 nM; in the test with DU145 cells (setting [3]) it was 2500 nM; with HeLa-MaTu-ADR cells (setting [4]), 100 nM; in the test with Caco2 cells (setting [5]) it was 1900 nM; with NCI-H460 cells (setting [6]), 9000 nM; in test [1], 14 nM. Also, the IC50 in the test with HeLa cells (4 days, crystal violet) came out at 3900 nM.
Consider `CCOc1cc(F)c(Cn2nc(-c3ncc(OC)c(Nc4ccncc4)n3)c3ccccc32)c(F)c1` [Example 15-1, 2-[1-(4-ethoxy-2,6-difluorobenzyl)-1H-indazol-3-yl]-5-methoxy-N-(pyridin-4-yl)pyrimidin-4-amine hydrochloride (1:1)], for which the IC50 in the test on B16F10 cells (B16F10, 4 days, crystal violet) came to 760 nM; in the test on DU145 cells (DU145, 4 days, crystal violet), 1200 nM; with HeLa-MaTu-ADR cells (HeLa-MaTu-ADR, 4 days, crystal violet), 1200 nM; in the test on Caco2 cells (Caco2, 4 days, crystal violet), 1200 nM; with NCI-H460 cells (H460, 4 days, crystal violet), 2200 nM; in test [1] it was 5.2 nM. For the same molecule, the IC50 in the test on HeLa cells (4 days, crystal violet) turned out to be 1400 nM.
`COc1cnc(-c2nn(Cc3c(Cl)cc(OC(F)(F)F)cc3Cl)c3ccccc23)nc1Nc1ccncc1` [Example 2-26-1, 2-{1-[2,6-dichloro-4-(trifluoromethoxy)benzyl]-1H-indazol-3-yl}-5-methoxy-N-(pyridin-4-yl)pyrimidin-4-amine]: the IC50 with B16F10 cells (Mus musculus, B16-F10, 96 h) came out at 420 nM; in the test with DU145 cells (Homo sapiens, DU-145, 96 h), 530 nM; in the test with HeLa-MaTu-ADR cells (96 h) it was 390 nM; in the test with Caco2 cells (Homo sapiens, Caco-2, 96 h) it was 380 nM; in the test with NCI-H460 cells (Homo sapiens, NCI-H460, 96 h), 1000 nM; in test [1], 16 nM. The IC50 in the test on HeLa cells is 560 nM.
Consider `CCOc1cc(F)c(Cn2nc(-c3ncc(OCCO)c(Nc4ccncc4)n3)c3ccccc32)c(F)c1` [Example 13-1, 2-({2-[1-(4-ethoxy-2,6-difluorobenzyl)-1H-indazol-3-yl]-4-(pyridin-4-ylamino)pyrimidin-5-yl}oxy)ethanol], for which the IC50 in the test with B16F10 cells (setting [2]) is 790 nM; in the test with DU145 cells (setting [3]), 1600 nM; in the test with HeLa-MaTu-ADR cells (setting [4]), 1300 nM; with Caco2 cells (setting [5]), 1200 nM; in the test on NCI-H460 cells (setting [6]), 1300 nM; in test [1] it was 3.3 nM. For the same molecule, the IC50 with HeLa cells (4 days, crystal violet) turned out to be 1500 nM.
Regarding `CCOc1cc(F)c(Cn2nc(-c3ncc(OC[C@H]4CCC(=O)N4)c(Nc4ccncc4)n3)c3ccccc32)c(F)c1` [Example 4-19, (5R)-5-[({2-[1-(4-ethoxy-2,6-difluorobenzyl)-1H-indazol-3-yl]-4-(pyridin-4-ylamino)pyrimidin-5-yl}oxy)methyl] pyrrolidin-2-one], the IC50 with B16F10 cells (Mus musculus, B16-F10, 96 h) stood at 530 nM; in the test on DU145 cells (Homo sapiens, DU-145, 96 h), 2300 nM; with HeLa-MaTu-ADR cells (96 h) it was 10000 nM; with Caco2 cells (Homo sapiens, Caco-2, 96 h), 10000 nM; in the test with NCI-H460 cells (Homo sapiens, NCI-H460, 96 h), 2200 nM; in test [1], 10 nM. In addition, the IC50 with HeLa cells is 1200 nM.
For the molecule `CN(C)CCOc1cnc(-c2nn(Cc3ccccc3F)c3ccccc23)nc1Nc1ccncc1` [Example 4-4, 5-[2-(dimethyl-amino)ethoxy]-2-[1-(2-fluorobenzyl)-1H-indazol-3-yl] N-(pyridin-4-yl)pyrimidin-4-amine], the IC50 was found to be 500 nM in the test on B16F10 cells (setting [2]); 4500 nM in the test with DU145 cells (setting [3]); 1200 nM in the test with HeLa-MaTu-ADR cells (setting [4]); 900 nM with Caco2 cells (setting [5]); 3500 nM in the test on NCI-H460 cells (setting [6]); 14 nM in test [1]. Moreover, in the test with HeLa cells (4 days, crystal violet), the IC50 worked out at 3400 nM.
In the case of `COC(=O)c1ccc(Cn2nc(-c3ncc(OC)c(Nc4ccncc4)n3)c3ccccc32)c(Cl)c1` [Example 2-11-1, methyl 3-chloro-4-({3-[5-methoxy-4-(pyridin-4-ylamino)pyrimidin-2-yl]-1H-indazol-1-yl}methyl)benzoate], the IC50 in the test with B16F10 cells (setting [2]) was determined as 2900 nM; with DU145 cells (setting [3]) it was 3000 nM; in the test with HeLa-MaTu-ADR cells (setting [4]), 3000 nM; in the test on Caco2 cells (setting [5]), 3000 nM; in the test with NCI-H460 cells (setting [6]), 3000 nM; in test [1], 7.1 nM. For the same molecule, in the test with HeLa cells (4 days, crystal violet), the IC50 came out at 290 nM.
With `CCOc1cc(F)c(Cn2nc(-c3ncc(OCC(O)CN4CCCCC4)c(Nc4ccncc4)n3)c3ccccc32)c(F)c1` (stereo not shown) [Example 4-9, 1-({2-[1-(4-ethoxy-2,6-difluorobenzyl)-1H-indazol-3-yl]-4-(pyridin-4-ylamino)pyrimidin-5-yl}oxy)-3-(piperidin-1-yl)propan-2-ol], the IC50 in the test with B16F10 cells (Mus musculus, B16-F10, 96 h) turned out to be 530 nM; with DU145 cells (Homo sapiens, DU-145, 96 h), 1300 nM; with HeLa-MaTu-ADR cells (96 h) it was 860 nM; in the test with Caco2 cells (Homo sapiens, Caco-2, 96 h), 780 nM; in the test with NCI-H460 cells (Homo sapiens, NCI-H460, 96 h), 1300 nM; in test [1] it was 5.4 nM. For the same molecule, the IC50 in the test on HeLa cells came to 1700 nM.
Regarding `COc1cnc(-c2nn(Cc3c(F)cc(C#N)cc3F)c3ccccc23)nc1Nc1ccncc1` [Example 2-46-1, 3,5-difluoro-4-({3-[5-methoxy-4-(pyridin-4-ylamino)pyrimidin-2-yl]-1H-indazol-1-yl}methyl)benzonitrile], the IC50 in the test with B16F10 cells (Mus musculus, B16-F10, 96 h) amounted to 710 nM; in the test with DU145 cells (Homo sapiens, DU-145, 96 h), 850 nM; with HeLa-MaTu-ADR cells (96 h), 380 nM; in the test on Caco2 cells (Homo sapiens, Caco-2, 96 h) it was 900 nM; with NCI-H460 cells (Homo sapiens, NCI-H460, 96 h), 880 nM; in test [1] it was 16 nM. For the same molecule, the IC50 with HeLa cells came out at 1400 nM.
